Results as given in patent publication US9969887B2, “Merocyanine-based compounds, and dyes, kits and contrast medium compositions for labelling biomolecules comprising the same” (SFC CO., LTD., priority 2016, dated 2018).
Entries after “also recorded” stand apart in the source; their conditions may differ.

Columns and labels:
[1] = Absorption and emission spectra, molar extinction coefficient and quantum efficiency in solvent; assay type: physicochemical
Procedure: Absorption spectra (λabs), emission spectra (λem), molar extinction coefficient (ε) and quantum efficiency of compounds 1 to 8 obtained in Preparation Examples 1 to 4, and commercially available SYBR® safe were measured and shown in Table 1 below.
Absorption spectra (λabs), emission spectra (λem), molar extinction coefficient (ε) and quantum efficiency of Compounds 36 to 39 obtained in Preparation Examples 6 and 7 and commercially available SYBR® safe were measured and shown in Table 2 below.

DNA = assay: Absorption and emission spectra and quantum efficiency in the presence of DNA; assay type: physicochemical
Procedure: Absorption spectra (λabs), emission spectra (λem) and quantum efficiency measured in the presence of DNA with compounds 1 to 8 and 36 to 39, and commercially available SYBR® safe were measured and are shown in Table 3 below.

[2] = test system: Salmonella typhimurium TA98 strain; assay: Ames test with S9 mixture; settings: for Number of colonies per plate: TA98, S9 mixture
[3] = Thermal stability test, absorbance on standing at 95° C. in PCR reaction buffer; assay type: physicochemical
Procedure: In order to confirm the stability of the fluorescent dye in the PCR reaction, 20 μL of PCR reaction buffer containing 1 μL of Compound 38 and 1 μL of EvaGreen™ (Biotium), respectively, was prepared. Each PCR reaction buffer was heated to 95° C., and the absorbance which varies with the standing time at 95° C. was measured.

Photobleaching test = assay type: physicochemical; settings: low concentration
Procedure: Real-Time PCR was performed in a 20 μL reaction solution containing only 5 μL of fluorescent dyes (Compound 38, SYBR® green I (Invitrogen) or EvaGreen™ (Biotium)) at various concentrations (dilution times). Cycles of 30 seconds at 25° C. and 30 seconds at 25° C. were repeated 60 times. Fluorescence intensity was measured for each cycle (1 minute) to observe photobleaching of fluorescent dyes at various concentrations (dilution times).

Hela cells = assay: Cell permeability test; assay type: cell-based; settings: 1 μM, 37° C., 30 minutes, microscope
Procedure: Hela cells were cultured in MEM medium containing 10% fetal bovine serum (FBS) and 1% penicillin/streptomycin (10,000 units penicillin and 10,000 μg/mL streptomycin, Invitrogen) under a humidified atmosphere of CO2 at 37° C. Hela cells were washed with medium No. 3, and 1 μM of SYBR® safe and Compound 6 were treated with Hela Cells and cultured at 37° C. for 30 minutes.

Row | SMILES | Quantum efficiency ([1]; DMSO) | ε (molar extinction coefficient) ([1]; DMSO) | λabs ([1]; DMSO) | λem ([1]; DMSO) | Quantum efficiency ([1]; buffer) | ε (molar extinction coefficient) ([1]; buffer) | λabs ([1]; buffer) | λem ([1]; buffer) | Quantum efficiency (DNA) | λabs (DNA) | λem (DNA) | further results
1 | O=C(CCCCCN1C=CC2=C3c4sc5ccccc5[n+]4CCC3Oc3cccc1c32)NCCOCCOCCNC(=O)CCCCCN1C=CC2=C3c4sc5ccccc5[n+]4CCC3Oc3cccc1c32 (stereo not shown) [Compound 3] | 0.55 | 84,000 M^−1cm^−1 | 517 nm | 565 nm | 0.03 | 66,000 M^−1cm^−1 | 484 nm | 564 nm | 0.86 | 517 nm | 540 nm | –
2 | O=C(CCCCCN1C=CC2=C3c4sc5ccc(Cl)cc5[n+]4CCC3Oc3cccc1c32)NCCOCCOCCNC(=O)CCCCCN1C=CC2=C3c4sc5ccc(Cl)cc5[n+]4CCC3Oc3cccc1c32 (stereo not shown) [Compound 6] | 0.62 | 70,000 M^−1cm^−1 | 517 nm | 563 nm | 0.04 | 60,000 M^−1cm^−1 | 484 nm | 564 nm | 0.73 | 517 nm | 538 nm | Number of colonies per plate ([2]; 8 μg/plate): 24 ± 6; Number of colonies per plate ([2]; 40 μg/plate): 57 ± 3; genotoxicity (Ames test), in words ([2]; TA98, S9 metabolic activity): no significant increase in colony counts; also recorded: lower genotoxicity than SYBR® safe
3 | O=C(CCCCCN1C=CC2=C3c4sc5ccc(Cl)cc5[n+]4CCC3Oc3cccc1c32)NCCOCCOCCOCCNC(=O)CCCCCN1C=CC2=C3c4sc5ccc(Cl)cc5[n+]4CCC3Oc3cccc1c32 (stereo not shown) [Compound 7] | 0.64 | 83,000 M^−1cm^−1 | 517 nm | 563 nm | 0.06 | 75,000 M^−1cm^−1 | 484 nm | 560 nm | 0.71 | 517 nm | 538 nm | –
4 | O=C(CCCCCN1C=CC2=C3c4sc5ccc(Cl)cc5[n+]4CCC3Oc3cccc1c32)NCCCOCCOCCOCCCNC(=O)CCCCCN1C=CC2=C3c4sc5ccc(Cl)cc5[n+]4CCC3Oc3cccc1c32 (stereo not shown) [Compound 8] | 0.71 | 89,000 M^−1cm^−1 | 517 nm | 563 nm | 0.04 | 78,000 M^−1cm^−1 | 484 nm | 565 nm | 0.80 | 517 nm | 538 nm | –
5 | O=C(CCCCCN1C=CC2=C3c4oc5ccccc5[n+]4CCC3Oc3cccc1c32)NCCOCCOCCNC(=O)CCCCCN1C=CC2=C3c4oc5ccccc5[n+]4CCC3Oc3cccc1c32 (stereo not shown) [Compound 37] | 0.63 | 100,000 M^−1cm^−1 | 492 nm | 520 nm | 0.14 | 85,000 M^−1cm^−1 | 458 nm | 524 nm | 0.64 | 492 nm | 512 nm | –
6 | O=C(CCCCCN1C=CC2=C3c4oc5ccccc5[n+]4CCC3Oc3cccc1c32)NCCOCCOCCOCCNC(=O)CCCCCN1C=CC2=C3c4oc5ccccc5[n+]4CCC3Oc3cccc1c32 (stereo not shown) [Compound 38] | 0.67 | 110,000 M^−1cm^−1 | 492 nm | 520 nm | 0.17 | 95,000 M^−1cm^−1 | 459 nm | 522 nm | 0.76 | 492 nm | 512 nm | high temperature stability ([3]; 95° C., compared with EvaGreen): greater than EvaGreen™; Absorbance ([3]; standing time 0 hr at 95° C.): 0.127; Absorbance ([3]; standing time 0.5 hr at 95° C.): 0.149; Absorbance ([3]; standing time 1 hr at 95° C.): 0.162; Absorbance ([3]; standing time 2 hr at 95° C.): 0.163; Absorbance ([3]; standing time 3 hr at 95° C.): 0.178
7 | CC[n+]1c(-c2ccccc2)c2cc(N)ccc2c2ccc(N)cc21.[Br-] [EtBr, ethidium bromide, reference compound] | – | – | – | – | – | – | – | – | – | – | – | Number of colonies per plate ([2]; 40 μg/plate): 3051 ± 181
8 | CCCN(CCCN(C)C)c1cc(/C=C2/Sc3ccccc3N2C)c2ccccc2[n+]1-c1ccccc1 [SYBR ® green I] | – | – | – | – | – | – | – | – | – | – | – | half-life (photobleaching) (Photobleaching test): 5.5 h
9 | CCC[n+]1ccc(/C=C2\Sc3ccccc3N2C)c2ccccc21 [SYBR ® safe, reference compound] | 0.006 | 77,000 M^−1cm^−1 | 509 nm | – | 0.006 | 57,000 M^−1cm^−1 | 502 nm | – | 0.021 | 503 nm | 535 nm | cell permeability (Hela cells): shows cell permeability; Number of colonies per plate ([2]; 1.6 μg/plate): 81 ± 7

Continued, in another order:

Row | Quantum efficiency ([1]; DMSO) | ε (molar extinction coefficient) ([1]; DMSO) | λabs ([1]; DMSO) | λem ([1]; DMSO) | Quantum efficiency ([1]; buffer) | ε (molar extinction coefficient) ([1]; buffer) | λabs ([1]; buffer) | λem ([1]; buffer) | Quantum efficiency (DNA) | λabs (DNA) | λem (DNA) | SMILES | further results
10 | 0.52 | 109,000 M^−1cm^−1 | 517 nm | 567 nm | 0.03 | 92,000 M^−1cm^−1 | 484 nm | 568 nm | 1.00 | 517 nm | 541 nm | O=C(CCCCCN1C=CC2=C3c4sc5ccccc5[n+]4CCC3Oc3cccc1c32)NCCOCCNC(=O)CCCCCN1C=CC2=C3c4sc5ccccc5[n+]4CCC3Oc3cccc1c32 (stereo not shown) [Compound 1] | –
11 | 0.88 | 101,000 M^−1cm^−1 | 517 nm | 566 nm | 0.08 | 83,000 M^−1cm^−1 | 484 nm | 565 nm | 0.93 | 517 nm | 541 nm | O=C(CCCCCN1C=CC2=C3c4sc5ccccc5[n+]4CCC3Oc3cccc1c32)NCCCOCCOCCOCCCNC(=O)CCCCCN1C=CC2=C3c4sc5ccccc5[n+]4CCC3Oc3cccc1c32 (stereo not shown) [Compound 2] | –
12 | 0.73 | 95,000 M^−1cm^−1 | 517 nm | 565 nm | 0.03 | 85,000 M^−1cm^−1 | 484 nm | 566 nm | 0.88 | 517 nm | 539 nm | O=C(CCCCCN1C=CC2=C3c4sc5ccccc5[n+]4CCC3Oc3cccc1c32)NCCOCCOCCOCCNC(=O)CCCCCN1C=CC2=C3c4sc5ccccc5[n+]4CCC3Oc3cccc1c32 (stereo not shown) [Compound 4] | –
13 | 0.64 | 73,000 M^−1cm^−1 | 517 nm | 564 nm | 0.05 | 60,000 M^−1cm^−1 | 484 nm | 562 nm | 0.86 | 517 nm | 537 nm | O=C(CCCCCN1C=CC2=C3c4sc5ccc(Cl)cc5[n+]4CCC3Oc3cccc1c32)NCCOCCNC(=O)CCCCCN1C=CC2=C3c4sc5ccc(Cl)cc5[n+]4CCC3Oc3cccc1c32 (stereo not shown) [Compound 5] | –
14 | 0.65 | 95,000 M^−1cm^−1 | 492 nm | 520 nm | 0.12 | 83,000 M^−1cm^−1 | 458 nm | 526 nm | 0.67 | 492 nm | 511 nm | O=C(CCCCCN1C=CC2=C3c4oc5ccccc5[n+]4CCC3Oc3cccc1c32)NCCOCCNC(=O)CCCCCN1C=CC2=C3c4oc5ccccc5[n+]4CCC3Oc3cccc1c32 (stereo not shown) [Compound 36] | –
15 | 0.70 | 116,000 M^−1cm^−1 | 492 nm | 520 nm | 0.15 | 98,000 M^−1cm^−1 | 459 nm | 523 nm | 0.70 | 492 nm | 513 nm | O=C(CCCCCN1C=CC2=C3c4oc5ccccc5[n+]4CCC3Oc3cccc1c32)NCCCOCCOCCOCCCNC(=O)CCCCCN1C=CC2=C3c4oc5ccccc5[n+]4CCC3Oc3cccc1c32 (stereo not shown) [Compound 39] | –
